Read-outs that look alike come from different tables or passages of the source.
What was measured:
Assay type in all cases: in vivo
[1] = system: barnyardgrass (Echinochloa crus-galli); assay: Test B pre/postemergence; details: Echinochloa crus-galli; for pest or weed control at 125 g/ha: 125 g ai/ha; for pest or weed control at 500 g/ha: 500 g ai/ha
Method in brief: (§1)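 Visual injury scored 0 (no effect) to 100 (complete control) versus untreated controls after 13 to 15 days in greenhouse. Treatments were pre- or postemergence sprays of surfactant-containing solvent formulations; postemergence plants at 1- to 4-leaf stage, 2 to 18 cm.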

[2] = system: pigweed (Amaranthus retroflexus); assay: Test B pre/postemergence; details: Amaranthus retroflexus; for pest or weed control at 125 g/ha: 125 g ai/ha; for pest or weed control at 500 g/ha: 500 g ai/ha
Method in brief: as §1

[3] = system: morningglory (Ipomoea coccinea); assay: Test B pre/postemergence; details: Ipomoea; for pest or weed control at 125 g/ha: 125 g ai/ha; for pest or weed control at 500 g/ha: 500 g ai/ha
Method in brief: as §1

[4] = system: velvetleaf (Abutilon theophrasti); assay: Test B pre/postemergence; details: Abutilon theophrasti; for pest or weed control at 125 g/ha: 125 g ai/ha; for pest or weed control at 500 g/ha: 500 g ai/ha
Method in brief: as §1

[5] = system: giant foxtail (Setaria faberii); assay: Test B pre/postemergence; details: Setaria faberi; for pest or weed control at 125 g/ha: 125 g ai/ha; for pest or weed control at 500 g/ha: 500 g ai/ha
Method in brief: as §1

[6] = system: lambsquarters (Chenopodium album); assay: Test B pre/postemergence; details: Chenopodium album; for pest or weed control at 125 g/ha: 125 g ai/ha; for pest or weed control at 500 g/ha: 500 g ai/ha
Method in brief: as §1

[7] = system: crabgrass (Digitaria sanguinalis); assay: Test B pre/postemergence; details: Digitaria sanguinalis; for pest or weed control at 125 g/ha: 125 g ai/ha; for pest or weed control at 500 g/ha: 500 g ai/ha
Method in brief: as §1

[8] = system: wheat (Triticum aestivum); assay: Test B pre/postemergence; details: Triticum aestivum; for plant injury at 500 g/ha: 500 g ai/ha
Method in brief: as §1

[9] = system: Surinam grass (Brachiaria decumbens); assay: Test B pre/postemergence; details: Urochloa decumbens; for pest or weed control at 125 g/ha: 125 g ai/ha; for pest or weed control at 500 g/ha: 500 g ai/ha
Method in brief: as §1

[10] = system: cocklebur (Xanthium strumarium); assay: Test B pre/postemergence; details: Xanthium strumarium; for pest or weed control at 125 g/ha: 125 g ai/ha; for pest or weed control at 500 g/ha: 500 g ai/ha
Method in brief: as §1

corn (Zea mays) = assay: Test B pre/postemergence; details: Zea mays
Method in brief: as §1

wild oat (Avena fatua) = assay: Test B postemergence; details: Avena fatua, post-emergence
Method in brief: as §1

[11] = system: blackgrass (Alopecurus myosuroides); assay: Test B postemergence; details: Alopecurus myosuroides, post-emergence
Method in brief: as §1

rice (Oryza sativa) = assay: Test B flooded paddy test; details: Oryza sativa, Flood, 1000 g ai/ha; scale 0 to 100; read-out: Plant response rating, Rice
Method in brief: (§2)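 Rice, umbrella sedge, duck salad and barnyardgrass grown to 2-leaf stage under flooded paddy conditions and treated with formulated test chemicals. Kept in greenhouse 13–15 days, then visually rated against untreated controls on a 0–100 scale (0 no effect, 100 complete control).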

[12] = system: barnyardgrass (Echinochloa crus-galli); assay: Test B flooded paddy test; details: Echinochloa crus-galli, Flood, 1000 g ai/ha; scale 0 (no effect) to 100 (complete control); read-out: Plant response rating, Barnyardgrass
Method in brief: as §2

[13] = system: duck salad (Heteranthera limosa); assay: Test B flooded paddy test; details: Heteranthera limosa, Flood, 1000 g ai/ha; scale 0 to 100; read-out: Plant response rating, Ducksalad
Method in brief: as §2

[14] = system: umbrella sedge (Cyperus difformis); assay: Test B flooded paddy test; details: Cyperus difformis, Flood, 1000 g ai/ha; scale 0 to 100; read-out: Plant response rating, Sedge, Umbrella
Method in brief: as §2

`CNc1nc(C2CC2)nc(C(=O)OC)c1Br` [Compound 5] was tested, and the pest or weed control at 125 g/ha ([1]; post-emergence, Postemergence, scale 0 to 100 (0 no effect, 100 complete control), read-out: Barnyardgrass plant response rating) was 50%, the pest or weed control at 500 g/ha ([1]; post-emergence, Postemergence, scale 0 to 100, read-out: Plant response rating, Barnyardgrass) was 90% and the pest or weed control at 125 g/ha ([1]; pre-emergence, Preemergence, scale 0 to 100 (0 no effect, 100 complete control), read-out: Plant response rating, Barnyardgrass) was 10%. The pest or weed control at 500 g/ha ([1]; pre-emergence, Preemergence, scale 0 to 100 (0 no effect, 100 complete control), read-out: Barnyardgrass plant response rating) was 30%, the pest or weed control at 125 g/ha ([2]; post-emergence, Postemergence, scale 0 to 100 (0 no effect, 100 complete control), read-out: Pigweed plant response rating) was 90% and the pest or weed control at 500 g/ha ([2]; post-emergence, Postemergence, scale 0 to 100, read-out: Plant response rating, Pigweed) was 100%. It also gave a pest or weed control at 125 g/ha ([2]; pre-emergence, Preemergence, scale 0 to 100 (0 no effect, 100 complete control), read-out: Plant response rating, Pigweed) of 90%, a pest or weed control at 500 g/ha ([2]; pre-emergence, Preemergence, scale 0 to 100 (0 no effect, 100 complete control), read-out: Pigweed plant response rating) of 90% and a pest or weed control at 125 g/ha ([3]; post-emergence, Postemergence, scale 0 to 100 (0 no effect, 100 complete control), read-out: Morningglory plant response rating) of 100%. The pest or weed control at 500 g/ha ([3]; post-emergence, Postemergence, scale 0 to 100, read-out: Plant response rating, Morningglory) was 100%, the pest or weed control at 125 g/ha ([3]; pre-emergence, Preemergence, scale 0 to 100 (0 no effect, 100 complete control), read-out: Plant response rating, Morningglory) was 70% and the pest or weed control at 500 g/ha ([3]; pre-emergence, Preemergence, scale 0 to 100 (0 no effect, 100 complete control), read-out: Morningglory plant response rating) was 80%. For the same compound, the pest or weed control at 125 g/ha ([4]; post-emergence, Postemergence, scale 0 to 100 (0 no effect, 100 complete control), read-out: Velvetleaf plant response rating) was 70%, the pest or weed control at 500 g/ha ([4]; post-emergence, Postemergence, scale 0 to 100, read-out: Plant response rating, Velvetleaf) was 90% and the pest or weed control at 125 g/ha ([4]; pre-emergence, Preemergence, scale 0 to 100 (0 no effect, 100 complete control), read-out: Plant response rating, Velvetleaf) was 70%. It also gave a pest or weed control at 500 g/ha ([4]; pre-emergence, Preemergence, scale 0 to 100 (0 no effect, 100 complete control), read-out: Velvetleaf plant response rating) of 90%, a pest or weed control at 125 g/ha ([5]; post-emergence, Postemergence, scale 0 to 100 (0 no effect, 100 complete control), read-out: Foxtail, Giant plant response rating) of 40% and a pest or weed control at 500 g/ha ([5]; post-emergence, Postemergence, scale 0 to 100, read-out: Plant response rating, Foxtail, Giant) of 50%. The pest or weed control at 125 g/ha ([5]; pre-emergence, Preemergence, scale 0 to 100 (0 no effect, 100 complete control), read-out: Plant response rating, Foxtail, Giant) was 0%, the pest or weed control at 500 g/ha ([5]; pre-emergence, Preemergence, scale 0 to 100 (0 no effect, 100 complete control), read-out: Foxtail, Giant plant response rating) was 10% and the pest or weed control at 125 g/ha ([6]; post-emergence, Postemergence, scale 0 to 100 (0 no effect, 100 complete control), read-out: Lambsquarters plant response rating) was 100%. It also gave a pest or weed control at 500 g/ha ([6]; post-emergence, Postemergence, scale 0 to 100, read-out: Plant response rating, Lambsquarters) of 100%, a pest or weed control at 125 g/ha ([6]; pre-emergence, Preemergence, scale 0 to 100 (0 no effect, 100 complete control), read-out: Plant response rating, Lambsquarters) of 90% and a pest or weed control at 500 g/ha ([6]; pre-emergence, Preemergence, scale 0 to 100 (0 no effect, 100 complete control), read-out: Lambsquarters plant response rating) of 100%. For the same compound, the pest or weed control at 125 g/ha ([7]; post-emergence, Postemergence, scale 0 to 100 (0 no effect, 100 complete control), read-out: Crabgrass plant response rating) was 50%, the pest or weed control at 500 g/ha ([7]; post-emergence, Postemergence, scale 0 to 100, read-out: Plant response rating, Crabgrass) was 90% and the pest or weed control at 125 g/ha ([7]; pre-emergence, Preemergence, scale 0 to 100 (0 no effect, 100 complete control), read-out: Plant response rating, Crabgrass) was 20%. For the same compound, the pest or weed control at 500 g/ha ([7]; pre-emergence, Preemergence, scale 0 to 100 (0 no effect, 100 complete control), read-out: Crabgrass plant response rating) was 70%, the plant injury at 125 g/ha ([8]; post-emergence, Postemergence, 125 g ai/ha, scale 0 to 100 (0 no effect, 100 complete control), read-out: Wheat plant response rating) was 50% and the plant injury at 500 g/ha ([8]; post-emergence, Postemergence, scale 0 to 100, read-out: Plant response rating, Wheat) was 60%. The plant injury at 500 g/ha ([8]; pre-emergence, Preemergence, scale 0 to 100 (0 no effect, 100 complete control), read-out: Wheat plant response rating) was 50%, the pest or weed control at 125 g/ha ([9]; post-emergence, Postemergence, scale 0 to 100 (0 no effect, 100 complete control), read-out: Surinam Grass plant response rating) was 50% and the pest or weed control at 500 g/ha ([9]; post-emergence, Postemergence, scale 0 to 100, read-out: Plant response rating, Surinam Grass) was 80%. It also gave a pest or weed control at 125 g/ha ([9]; pre-emergence, Preemergence, scale 0 to 100 (0 no effect, 100 complete control), read-out: Plant response rating, Surinam Grass) of 0%, a pest or weed control at 500 g/ha ([9]; pre-emergence, Preemergence, scale 0 to 100 (0 no effect, 100 complete control), read-out: Surinam Grass plant response rating) of 10% and a pest or weed control at 125 g/ha ([10]; post-emergence, Postemergence, scale 0 to 100 (0 no effect, 100 complete control), read-out: Cocklebur plant response rating) of 80%. The pest or weed control at 500 g/ha ([10]; post-emergence, Postemergence, scale 0 to 100, read-out: Plant response rating, Cocklebur) was 100%, the pest or weed control at 125 g/ha ([10]; pre-emergence, Preemergence, scale 0 to 100 (0 no effect, 100 complete control), read-out: Plant response rating, Cocklebur) was 70% and the pest or weed control at 500 g/ha ([10]; pre-emergence, Preemergence, scale 0 to 100 (0 no effect, 100 complete control), read-out: Cocklebur plant response rating) was 80%. The plant injury at 125 g/ha (corn (Zea mays); post-emergence, Postemergence, 125 g ai/ha, scale 0 to 100 (0 no effect, 100 complete control), read-out: Corn plant response rating) was 30%, the Corn plant response rating (crop injury, 0 = no effect, 100 = complete kill) at 500 g/ha (corn (Zea mays); post-emergence, Postemergence, 500 g ai/ha, scale 0 to 100) was 90% and the Corn plant response rating (crop injury, 0 = no effect, 100 = complete kill) at 125 g/ha (corn (Zea mays); pre-emergence, Preemergence, 125 g ai/ha, scale 0 to 100 (0 no effect, 100 complete control)) was 0%. It also gave a plant injury at 500 g/ha (corn (Zea mays); pre-emergence, Preemergence, 500 g ai/ha, scale 0 to 100 (0 no effect, 100 complete control), read-out: Corn plant response rating) of 70%, a pest or weed control at 125 g/ha (wild oat (Avena fatua); 125 g ai/ha, scale 0 to 100 (0 no effect, 100 complete control), read-out: Oat, Wild plant response rating) of 40% and a pest or weed control at 500 g/ha (wild oat (Avena fatua); 500 g ai/ha, scale 0 to 100, read-out: Plant response rating, Oat, Wild) of 60%. For the same compound, the pest or weed control at 125 g/ha ([11]; 125 g ai/ha, scale 0 to 100 (0 no effect, 100 complete control), read-out: Blackgrass plant response rating) was 70%, the pest or weed control at 500 g/ha ([11]; 500 g ai/ha, scale 0 to 100, read-out: Plant response rating, Blackgrass) was 80% and the plant injury at 1000 g/ha (rice (Oryza sativa)) was 0%. It also gave a pest or weed control at 1000 g/ha [12] of 50%, a pest or weed control at 1000 g/ha [13] of 90% and a pest or weed control at 1000 g/ha [14] of 90%.
